The values below come from patent publication US9273043B2, “TRPV1 antagonists including dihydroxy substituent and uses thereof” (Purdue Pharma L.P., priority 2011, dated 2016).

Values after ≈ are worked out from the molar mass of the structure shown. Where two headings read alike, the source gives them in different places.

A short description of series [1]: Aqueous solubility at pH 1.2 and pH 6.8. The series is classed as physicochemical. Particulars: aqueous solution.
The target in series [2] is T1, human TRPV1 (Homo sapiens (Human), UniProt Q8NER1). The series can be described thus: Capsaicin-based assay, Protocol 2, TRPV1/CHO cells (hCAP-CHO), Fluo-4 FLIPR. It is filed as cell-based. The conditions noted are these: 100 nM capsaicin, mean ± SEM. An excerpt:
The TRPV1/CHO cell line was generated as described below. […] The resulting PCR products were purified from agarose gels using Gel Band Purification Kit (GE Healthcare Bioscience) and were subcloned into pCR-Blunt vector (Invitrogen). The cloned cDNA was fully sequenced using a fluorescent dye-terminator reagent (BigDye Terminator ver3.1 Cycle Sequencing Kit, Applied Biosystems) and ABI Prism 3100 genetic analyzer (Applied Biosystems). The pCR-Blunt vector containing the hTRPV1 cDNA was subjected to restriction digestion with EcoR1. The restriction fragment was subcloned into expression vector pcDNA3.1(-) (Invitrogen) and named pcDNA3.1(-)-hVR1 plasmid. The sequence of the cDNA encoding TRPV1 is available at GenBank accession number AJ277028. […] The cells were transfected with the pcDNA3.1(-)-hVR1 plasmid using FuGENE6 (Roche) according to the manufacturer's protocol. 24 hr after transfection, neomycin-resistant cells were selected using 1 mg/mL G418 (Nacalai Tesque). […] The cells expressing hTRPV1 were cultured in the growth medium supplemented with 1 mg/mL G418. […] Capsaicin-based Assay: […] Subsequently, the cells were loaded by incubation in 0.1 mL of wash buffer containing Fluo-4 at 3 μM final concentration. After 1 hour, the cells were washed twice with 0.2 mL wash buffer and resuspended in 0.1 mL wash buffer. The plates were then transferred to a Fluorescence Imaging Plate Reader (Molecular Devices). Fluorescence intensity was monitored for 15 seconds to establish a baseline. […] The final concentration of the compound was adjusted to range from 100 μM to 1.5625 μM. […] Data were collected over the entire time course and analyzed using Excel and the curve-fitting formula GraphPad Prism.

In series [3] the target is T1, human TRPV1. Briefly: Human TRPV1 heat-based assay, hTRPV1/CHO cells (hHeat-CHO). The series is classed as cell-based. The conditions noted are these: temperature ramp 25 to 45 °C, mean ± SEM. Here is the method:
Human TRPV1 Heat-based Assay:
CHO cells stably expressing human TRPV1 (hTRPV1) were used. Functional assessment of heat-induced activation of hTRPV1 was carried out in a cell-based Ca^2+ flux assay using ABI7500 Fast Real-Time PCR System as described in Reubish et al., “Functional assessment of temperature-gated ion-channel activity using a real-time PCR machine,” www.BioTechniques.com 47(3):iii-ix (2009), which is hereby incorporated by reference. Briefly, hTRPV1/CHO cells were cultured in growth media in a tissue culture dish at 37° C. in a CO2 incubator. On the day of the assay, culture media were removed and the cells were then detached using 0.05% trypsin at 37° C. with 5% CO2, for 90 s. The detached cells were centrifuged (1000 rpm, 4 min) to remove trypsin-containing supernatant and resuspended in assay buffer (115 mM NaCl, 5.4 mM KCl, 0.8 mM MgCl2.6H2O, 1.8 mM CaCl2.2H2O, 13.8 mM D-glucose, and 20 mM HEPES). Then, the cells were loaded with 5 μM Fluo-4, a Ca^2+ reporter dye, in the presence of 2.5 mM probenecid at 37° C. with 5% CO2, for 45 min. Thereafter, the cells were washed twice with measuring buffer (assay buffer supplemented with 0.1% BSA and 3.2 mM CaCl2) then transferred to a Fast 96-well Reaction Plate (0.1 mL) (Part no. 4346907, MICROAMP, Applied Biosystems, Foster City, Calif.). The cell density was 100,000 cells/24 μL/well. A solution of the compound under test (6 μL/well) was added into each well of the 96-well plate. Thus, the reaction volume per well was 30 μL.
The plates were then placed inside an ABI7500 Fast Real-Time PCR instrument (Applied Biosystems) to read fluorescence at different temperatures using 7500 software, version 2.0.2 (Applied Biosystems). The initial temperature was set at 25° C. for 1 min. followed by a temperature ramp to 45° C. in 100 s to deliver heat to cells. [Ca^2+], response of hTRPV1/CHO cells to heat was determined as: [fluorescence read at 45° C.−fluorescence read at 25° C.].
Compound concentration response curves and IC50 values were analyzed using GraphPad Prism 4 software (GraphPad Software, La Jolla, Calif.).
The IC50 data provided in Table 6 are shown as mean±standard error of the mean; the number of trials conducted for each assay is shown in parentheses except for only a single trial where no number of trials is shown in parentheses.

Series [4] is described as follows: In vivo assay of body temperature increase (rectal body temperature). The conditions noted are these: rats, oral, 10 mL/kg of 1 mg/mL in 0.5% methylcellulose; greatest ΔTb versus vehicle control at 0.5, 1 or 2 hrs. The arrangement: species or system rat. The source says: Hyperthermia or undesirable elevation in animal body temperature is known to be an undesirable side-effect accompanying the administration of certain TRPV1 antagonists (Gavva, “Body-temperature maintenance as the predominant function of the vanilloid receptor TRPV1,” Trends Pharmacol. Sci. 29(11):550-557 (2008)).
Test Animals: Selection of rats (Crl/SD rats, 7 weeks, male) was based on rectal body temperature measured during the morning of the day of dosing as described below. In addition, to minimize spontaneous, stress-induced increases in body temperature, rats were acclimated in advance to both the rectal measurement procedure and to being handled and dosed. All lodging and testing took place in animal care laboratories with constant room temperature and humidity. The rats were free to move and ingest food and water throughout. Each rat was coded with a colored line on the tail, housed in a separate cage, and permitted the normal range of movement. Immediately before each body temperature measurement, a rat was transferred to a measurement cage. To reduce stress which could influence its body temperature, each rat was covered with towels during the measurement. A thermistor probe was then carefully inserted into the rectum of each rat and left in place until the temperature reading on the digital display had stabilized; this value was recorded.
Assay: On the day before dosing, rectal body temperature was measured at 9:00, 10:00, 11:00, 12:30, 13:30, 14:30, and 15:30 o'clock to familiarize the rats with the measurement procedure prior to administration of the test or control treatments. The rats were also dosed by oral gavage without vehicle at 12:30 o'clock to acclimate and familiarize them with the handling and dosing procedure.
On the day of dosing, only rats with rectal body temperatures within the range of from 37.0° C. to 37.7° C. were selected for study. Rectal body temperatures were measured at 9:00, 10:00, and 11:00 o'clock. Rats were excluded from the study if either their rectal body temperature was over 37.9° C. at 10:00 o'clock or was outside the range of from 37.0° C. to 37.7° C. at 11:00 o'clock. The selected rats were divided into several groups based on their rectal body temperatures at 11:00 o'clock. Rectal body temperatures of the selected rats were measured again at 12:30 o'clock and any rat with a rectal body temperature of 38.0° C. or greater was also excluded from the study.
Following assignment to either a test or control group, a test compound or a control was administered to the rats. Each test compound was dissolved in a vehicle of 0.5% aqueous methylcellulose solution and the final concentration of the test compound was adjusted to 1 mg/mL. Each test compound was orally administered once at a dose of 10 mL/kg. The same volume of the control (vehicle only) was administered once to the control group. Rectal body temperatures were measured at the following time points: 0.5, 1, and 2 hrs after administration.
The body temperature increase (ΔTb) for each test compound was calculated by subtracting, at each time point, the average temperature of the control group from the average temperature of the group administered that test compound. The greatest ΔTb obtained for each test compound at any of the time points is shown in Table 11 below, along with the ΔTb of the control.

T1 sequence (Q8NER1 whole entry, looked up, the tested form may be a part): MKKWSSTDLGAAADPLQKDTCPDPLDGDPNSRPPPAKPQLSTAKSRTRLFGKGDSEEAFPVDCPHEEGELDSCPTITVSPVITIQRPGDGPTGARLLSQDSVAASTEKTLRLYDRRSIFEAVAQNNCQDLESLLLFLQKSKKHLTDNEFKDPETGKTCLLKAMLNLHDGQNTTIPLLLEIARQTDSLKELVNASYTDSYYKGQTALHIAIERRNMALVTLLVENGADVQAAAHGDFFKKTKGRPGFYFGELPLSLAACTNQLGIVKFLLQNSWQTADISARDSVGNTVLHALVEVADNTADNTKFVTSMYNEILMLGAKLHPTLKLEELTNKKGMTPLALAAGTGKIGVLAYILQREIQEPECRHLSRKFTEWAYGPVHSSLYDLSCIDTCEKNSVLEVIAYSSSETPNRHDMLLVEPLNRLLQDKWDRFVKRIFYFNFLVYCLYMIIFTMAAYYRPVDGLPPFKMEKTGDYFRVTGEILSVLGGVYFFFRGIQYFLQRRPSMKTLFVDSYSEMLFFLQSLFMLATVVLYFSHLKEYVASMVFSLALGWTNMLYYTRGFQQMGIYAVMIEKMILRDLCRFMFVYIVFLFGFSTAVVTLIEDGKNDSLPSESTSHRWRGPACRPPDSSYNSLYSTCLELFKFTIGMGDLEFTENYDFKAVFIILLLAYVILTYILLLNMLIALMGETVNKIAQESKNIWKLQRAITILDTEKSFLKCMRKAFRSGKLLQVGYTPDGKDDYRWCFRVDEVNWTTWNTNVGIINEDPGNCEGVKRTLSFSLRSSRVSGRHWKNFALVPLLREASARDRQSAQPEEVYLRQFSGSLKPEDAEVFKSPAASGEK

The solubility is how much of the substance goes into solution per volume. What is called IC50 is the concentration that gives 50% inhibition. Consider `C[C@H]1CN(c2ncc([C@H](O)CO)cc2F)CCN1C(=O)Nc1nc2cc(F)ccc2s1` [A155(a), (S)-4-{5-[(S)-1,2-Dihydroxyethyl]-3-fluoropyridin-2-yl}-N-(5-fluorobenzo[d]thiazol-2-yl)-2-methylpiperazine-1-carboxamide], for which the solubility in series [1] (pH 1.2, simulated gastric fluid, read-out: aqueous solubility at pH 1.2) was greater than 50 µM; in series [1] (pH 6.8, aqueous buffer, read-out: aqueous solubility at pH 6.8), 17 µM (≈ 7.64 µg/mL). The results for the IC50 in series [2] and in series [3] were 96 ± 18 nM and 700 nM, respectively. The “ΔTb, body temperature increase” value in series [4] worked out at 0.2 °C.

`C[C@H](O)[C@@H](O)c1cnc(N2CCN(C(=O)Nc3nc4ccc(F)cc4s3)[C@@H](C)C2)c(F)c1` [BB, (S)-4-{5-[(1S,2S)-1,2-dihydroxypropyl]-3-fluoropyridin-2-yl}-N-(6-fluorobenzo[d]thiazol-2-yl)-2-methylpiperazine-1-carboxamide]: the IC50 in series [2] is 63.7 ± 13.4 nM; in series [3], 490 nM. Moreover, in series [4], the “ΔTb, body temperature increase” value was 0.5 °C.
